Test: carrier reorganization in simulated gastric fluid and aspirin partitioning (Examples 2 and 3)
Format: physicochemical
Method: 5 grams of the composition is added to a beaker equipped with a magnetic stirrer and 50 mL of simulated gastric fluid is added with stirring. […] To this material, a 1 N solution of sodium hydroxide is added slowly to bring the pH up to about pH 7 with stirring. Raising the pH to pH 7 gives rise to a change in the carrier in a high pH environment. To this material, a 1 N solution of hydrochloride acid is added slowly until the pH is lowered to the pH of the simulated gastric fluid. It is expected that the carrier will reorganize. […] Thus, a carrier comprising a sufficient amount of a fatty acid in a triglyceride is capable of reorganization and absorption of a BAI from the low pH fluid, here simulated gastric fluid. 5 grams of the composition is added to a beaker equipped with a magnetic stirrer and 50 mL of simulated gastric fluid is added with stirring. […] To this material, a 1 N solution of sodium hydroxide is added slowly to bring the pH up to about pH 7 with stirring showing the change in the carrier in a high pH environment and the release of aspirin into the high pH environment. To this material, a 1 N solution of hydrochloride acid is added slowly until the pH is lowered to the pH of the simulated gastric fluid. […]

## CC(=O)Oc1ccccc1C(=O)O [aspirin]
Example 2: 10 g powdered aspirin added after oleic acid/soybean oil carrier was cycled low pH - pH 7 - low pH
  aspirin partitioning between reorganized carrier and simulated gastric fluid: partitions between the reorganized carrier and the simulated gastric fluid
Example 3: carrier (oleic acid/soybean oil) and aspirin 1:1, cycled low pH - pH 7 - low pH
  aspirin partitioning between reorganized carrier and simulated gastric fluid: partitions between the reorganized carrier and the simulated gastric fluid

— patent US11771708B2, “Pharmaceutical carriers capable of pH dependent reconstitution and methods for making and using same” (Greenwood Brands, LLC, priority 2020, dated 2023)
